Experimental data published in US10487093B2, “Heterocyclic compounds, in particular 2-oxo-4,4,5,5,6,6,7,7-octahydrobenzoxazole derivatives, and their use as antibacterial compounds” (priority 2016, dated 2019).
Where two headings read alike, the source gives them in different places.

Tests used:
Format in all cases: cell-based
[1] = system: strains of Finegoldia magna; experiment: MIC against anaerobes, agar dilution (CLSI), clinical isolates; conditions: Finegoldia magna, read-out: MIC
[2] = system: Streptococcus pneumoniae ATCC 49619; experiment: MIC, broth microdilution (CLSI) versus planktonic bacteria; conditions: ATCC49619; Streptococcus pneumoniae ATCC 49619; 16-20 h; mode of three independent experiments; read-out: MIC, Sp ATCC 49619
[3] = system: strains of Parvimonas micra; experiment: MIC against anaerobes, agar dilution (CLSI), clinical isolates
[4] = system: strains of Prevotella melaninogenica; experiment: as above
[5] = system: Staphylococcus aureus ATCC 29213; experiment: MIC, broth microdilution (CLSI) versus planktonic bacteria; conditions: ATCC29213; Staphylococcus aureus ATCC 29213; 16-20 h; mode of three independent experiments; read-out: MIC, Sa ATCC 29213
[6] = system: strains of Clostridium perfringens; experiment: microbe, parasite or virus in culture
[7] = system: Bacteroides thetaiotaomicron ATCC 29741; experiment: microbe, parasite or virus in culture; conditions: ATCC29741, agar dilution, Brucella blood agar, 35° C., 48 h, anaerobic conditions, read-out: MIC, B. thetaiotaomicron ATCC
[8] = system: Clostridium difficile ATCC 700057; experiment: MIC against anaerobes, agar dilution (CLSI), reference strain; conditions: Clostridioides difficile, ATCC700057, 48 h, read-out: MIC, C. difficile ATCC 700057
[9] = system: strains of Peptoniphilus harei; experiment: MIC against anaerobes, agar dilution (CLSI), clinical isolates; conditions: Peptoniphilus harei, read-out: MIC
[10] = system: strains of Peptostreptococcus anaerobius; experiment: as above
[11] = system: strains of Bacteroides thetaiotaomicron; experiment: microbe, parasite or virus in culture
[12] = system: strains of Propionibacterium acnes; experiment: MIC against anaerobes, agar dilution (CLSI), clinical isolates; conditions: Cutibacterium acnes
[13] = system: strains of Prevotella bivia; experiment: as above
[14] = system: Bacteroides fragilis ATCC 25285; experiment: MIC against anaerobes, agar dilution (CLSI), reference strain; conditions: ATCC25285, agar dilution, Brucella blood agar, 35° C., 48 h, anaerobic conditions, read-out: MIC, B. fragilis ATCC 25285
[15] = system: strains of Bacteroides fragilis; experiment: MIC against anaerobes, agar dilution (CLSI), clinical isolates

Measured: MIC

COc1ccc2ncc(=O)n(CCN[C@@H]3CC[C@@H]4[C@@H](C3)OC(=O)N4c3ccc4c(n3)NC(=O)CO4)c2c1 [Compound 21, 1-(2-{[(3aR,6R,7aR)-2-oxo-3-{3-oxo-2H,3H,4H-pyrido[3,2-b][1,4]oxazin-6-yl}-octahydro-1,3-benzoxazol-6-yl]amino}ethyl)-7-methoxy-1,2-dihydroquinoxalin-2-one]
< 1 µg/mL: [1]; Finegoldia magna strain 1 | [1]; Finegoldia magna strain 2 | [1]; Finegoldia magna strain 3 | [1]; Finegoldia magna strain 4 | [1]; Finegoldia magna strain 5 | [1]; Finegoldia magna strain 6 | [1]; Finegoldia magna strain 7 | [1]; Finegoldia magna strain 8 | [1]; Finegoldia magna strain 9 | [1]; Finegoldia magna strain 10 | [1]; Finegoldia magna strain 11 | [1]; Finegoldia magna strain 12 | [3]; Parvimonas micra strain 1 | [3]; Parvimonas micra strain 2 | [3]; Parvimonas micra strain 3 | [3]; Parvimonas micra strain 5 | [3]; Parvimonas micra strain 6 | [3]; Parvimonas micra strain 7 | [3]; Parvimonas micra strain 8 | [3]; Parvimonas micra strain 9 | [3]; Parvimonas micra strain 10 | [3]; Parvimonas micra strain 11 | [3]; Parvimonas micra strain 12 | [4]; Prevotella melaninogenica strain 1 | [4]; Prevotella melaninogenica strain 2 | [4]; Prevotella melaninogenica strain 3 | [4]; Prevotella melaninogenica strain 4 | [4]; Prevotella melaninogenica strain 5 | [4]; Prevotella melaninogenica strain 6 | [4]; Prevotella melaninogenica strain 7 | [4]; Prevotella melaninogenica strain 8 | [4]; Prevotella melaninogenica strain 9 | [4]; Prevotella melaninogenica strain 10 | [4]; Prevotella melaninogenica strain 11 | [5] | [6]; Clostridium perfringens strain 1 | [6]; Clostridium perfringens strain 2 | [6]; Clostridium perfringens strain 3 | [6]; Clostridium perfringens strain 4 | [6]; Clostridium perfringens strain 5 | [6]; Clostridium perfringens strain 6 | [6]; Clostridium perfringens strain 7 | [6]; Clostridium perfringens strain 8 | [6]; Clostridium perfringens strain 9 | [6]; Clostridium perfringens strain 10 | [6]; Clostridium perfringens strain 11 | [7] | [8] | [9]; Peptoniphilus harei strain 1 | [9]; Peptoniphilus harei strain 2 | [9]; Peptoniphilus harei strain 3 | [9]; Peptoniphilus harei strain 4 | [9]; Peptoniphilus harei strain 5 | [9]; Peptoniphilus harei strain 6 | [9]; Peptoniphilus harei strain 7 | [9]; Peptoniphilus harei strain 8 | [9]; Peptoniphilus harei strain 9 | [9]; Peptoniphilus harei strain 10 | [9]; Peptoniphilus harei strain 11 | [9]; Peptoniphilus harei strain 12 | [10]; Peptostreptococcus anaerobius strain 1 | [10]; Peptostreptococcus anaerobius strain 2 | [10]; Peptostreptococcus anaerobius strain 3 | [10]; Peptostreptococcus anaerobius strain 4 | [10]; Peptostreptococcus anaerobius strain 5 | [10]; Peptostreptococcus anaerobius strain 6 | [10]; Peptostreptococcus anaerobius strain 7 | [10]; Peptostreptococcus anaerobius strain 8 | [10]; Peptostreptococcus anaerobius strain 9 | [10]; Peptostreptococcus anaerobius strain 10 | [11]; Bacteroides thetaiotaomicron strain 1, read-out: MIC | [11]; Bacteroides thetaiotaomicron strain 2, read-out: MIC | [11]; Bacteroides thetaiotaomicron strain 3, read-out: MIC | [11]; Bacteroides thetaiotaomicron strain 4, read-out: MIC | [11]; Bacteroides thetaiotaomicron strain 5, read-out: MIC | [11]; Bacteroides thetaiotaomicron strain 6, read-out: MIC | [11]; Bacteroides thetaiotaomicron strain 7, read-out: MIC | [11]; Bacteroides thetaiotaomicron strain 8, read-out: MIC | [11]; Bacteroides thetaiotaomicron strain 9, read-out: MIC | [11]; Bacteroides thetaiotaomicron strain 10, read-out: MIC | [12]; Propionibacterium acnes strain 1 | [12]; Propionibacterium acnes strain 2 | [12]; Propionibacterium acnes strain 3 | [12]; Propionibacterium acnes strain 4 | [12]; Propionibacterium acnes strain 5 | [12]; Propionibacterium acnes strain 6 | [12]; Propionibacterium acnes strain 7 | [12]; Propionibacterium acnes strain 8 | [12]; Propionibacterium acnes strain 9 | [12]; Propionibacterium acnes strain 10 | [12]; Propionibacterium acnes strain 11 | [12]; Propionibacterium acnes strain 12 | [13]; Prevotella bivia strain 1 | [13]; Prevotella bivia strain 2 | [13]; Prevotella bivia strain 3 | [13]; Prevotella bivia strain 4 | [13]; Prevotella bivia strain 5 | [13]; Prevotella bivia strain 6 | [13]; Prevotella bivia strain 7 | [13]; Prevotella bivia strain 8 | [13]; Prevotella bivia strain 9 | [13]; Prevotella bivia strain 10 | [14] | [15]; Bacteroides fragilis strain 2 | [15]; Bacteroides fragilis strain 3 | [15]; Bacteroides fragilis strain 4 | [15]; Bacteroides fragilis strain 5 | [15]; Bacteroides fragilis strain 6 | [15]; Bacteroides fragilis strain 7 | [15]; Bacteroides fragilis strain 8 | [15]; Bacteroides fragilis strain 9 | [15]; Bacteroides fragilis strain 10 | [15]; Bacteroides fragilis strain 11 | [15]; Bacteroides fragilis strain 12
1 to 4 µg/mL: [3]; Parvimonas micra strain 4 | [11]; Bacteroides thetaiotaomicron strain 11, read-out: MIC | [15]; Bacteroides fragilis strain 1
1 to 10 µg/mL: [2]
